Data from ChEMBL document CHEMBL5352415, “Discovery of new macrophage M2 polarization modulators as multiple sclerosis treatment agents that enable the inflammation microenvironment remodeling” (Eur J Med Chem, 2022).

Assays:
[1] = target: RAC-beta serine/threonine-protein kinase (Homo sapiens, UniProt P31751); test: Inhibition of AKT2 (unknown origin); assay type: binding
[2] = Induction of M2 macrophage polarization in C57BL/6 mouse BMDM cells assessed as fold increase in Ym1 gene level at 1 uM incubated for 24 hrs by qRT-PCR analysis; assay type: functional
[3] = target: RAC-alpha serine/threonine-protein kinase (Homo sapiens, UniProt P31749); test: Inhibition of AKT1 (unknown origin); assay type: binding
[4] = Induction of M2 macrophage polarization in C57BL/6 mouse BMDM cells assessed as fold increase in Arg1 gene level at 1 uM incubated for 24 hrs by qRT-PCR analysis; assay type: functional
[5] = target: T1, RAC-alpha serine/threonine-protein kinase (Mus musculus, UniProt P31750); test: Inhibition of LPS-induced Akt phosphorylation at Ser473 in C57BL/6 mouse BMDM cells at 50 to 500 nM incubated for 24 hrs by Western blot analysis; assay type: cell-based; conditions: 0.5 µM, dose 50-500 nM
[6] = target: T1, RAC-alpha serine/threonine-protein kinase; test: Inhibition of Akt phosphorylation at Ser473 in C57BL/6 mouse BMDM cells at 50 to 500 nM incubated for 24 hrs by Western blot analysis; assay type: cell-based; conditions: 0.5 µM, dose 50-500 nM
[7] = Inhibition of M1 macrophage polarization in C57BL/6 mouse BMDM cells assessed as fold decrease in Inos gene level at 1 uM incubated for 24 hrs by qRT-PCR analysis (reference value: 1); assay type: functional
[8] = Inhibition of LPS-induced M1 macrophage polarization in C57BL/6 mouse BMDM cells assessed as fold decrease in Inos gene level at 1 uM preincubated with LPS for 24 hrs followed by compound addition and measured after 24 hrs by qRT-PCR analysis (reference value: 524.05 +/- 24.75); assay type: functional

Sequence of RAC-beta serine/threonine-protein kinase (P31751 whole entry): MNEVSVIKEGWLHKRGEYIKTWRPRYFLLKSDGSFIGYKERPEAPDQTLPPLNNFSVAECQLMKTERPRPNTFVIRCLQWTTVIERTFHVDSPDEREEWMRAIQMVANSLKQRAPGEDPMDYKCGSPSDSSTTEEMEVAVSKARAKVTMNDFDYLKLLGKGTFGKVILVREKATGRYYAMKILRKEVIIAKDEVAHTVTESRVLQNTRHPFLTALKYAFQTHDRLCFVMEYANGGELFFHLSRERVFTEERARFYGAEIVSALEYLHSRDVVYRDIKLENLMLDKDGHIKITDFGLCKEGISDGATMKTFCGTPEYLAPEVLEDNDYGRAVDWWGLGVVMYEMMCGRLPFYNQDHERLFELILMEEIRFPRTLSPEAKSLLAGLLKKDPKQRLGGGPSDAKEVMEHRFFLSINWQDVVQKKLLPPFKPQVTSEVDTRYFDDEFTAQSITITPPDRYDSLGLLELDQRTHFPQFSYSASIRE
Sequence of RAC-alpha serine/threonine-protein kinase (Homo sapiens, UniProt P31749) (P31749 whole entry): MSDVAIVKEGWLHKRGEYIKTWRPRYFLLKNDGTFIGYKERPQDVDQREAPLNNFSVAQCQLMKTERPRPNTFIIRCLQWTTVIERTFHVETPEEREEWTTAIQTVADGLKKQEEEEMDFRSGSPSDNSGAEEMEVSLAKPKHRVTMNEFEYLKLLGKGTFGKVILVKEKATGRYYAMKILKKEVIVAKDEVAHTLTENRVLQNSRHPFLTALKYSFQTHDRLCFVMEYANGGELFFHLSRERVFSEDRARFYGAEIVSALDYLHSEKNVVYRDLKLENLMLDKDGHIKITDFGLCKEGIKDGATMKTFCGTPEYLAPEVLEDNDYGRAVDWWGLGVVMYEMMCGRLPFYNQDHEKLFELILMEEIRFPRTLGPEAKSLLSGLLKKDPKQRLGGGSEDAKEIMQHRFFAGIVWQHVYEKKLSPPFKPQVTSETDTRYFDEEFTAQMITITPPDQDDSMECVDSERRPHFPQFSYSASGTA
T1 sequence (P31750 whole entry): as the sequence (P31749 whole entry) above, with S2N, A50S, T100A, K112R, E117T, K389T, G410N, H415D counted along it

For CCCc1cc(C(=O)N[C@@H]2CNCC[C@H]2c2ccc(F)c(F)c2)ccc1-c1c(Br)cnn1C.Cl, the IC50 [1] was > 1000 nM, the “fold change (FC)” value [2] was 3.86 and the IC50 [3] was > 1000 nM. The “fold change (FC)” value [4] was 1.42.
In the case of Cc1cc(C(=O)N[C@@H]2CNCC[C@H]2c2ccc(F)c(F)c2)ccc1-c1c(Br)cnn1C.Cl, the IC50 [1] is reported as > 1000 nM, the “fold change (FC)” value [2] is reported as 4.87 and the IC50 [3] is reported as 341 nM. For the same molecule, the “fold change (FC)” value [4] was 2.62.
In the case of CCCc1cc(C(=O)N[C@@H]2CNCC[C@H]2c2ccc(F)c(F)c2)ccc1-c1ccnn1C.Cl, the “fold change (FC)” value [2] is reported as 3.84, the IC50 [3] is reported as 92 nM and the “fold change (FC)” value [4] is reported as 1.43.
With Cn1ncc(Br)c1-c1ccc2c(c1)CN([C@@H]1CNCC[C@H]1c1ccc(F)c(F)c1)C2=O the IC50 [1] was 2.7 nM, the “fold change (FC)” value [2] was 7.52 and the IC50 [3] was 1.6 nM. For the same molecule, the “fold change (FC)” value [4] was 1.93.
For Cc1cc(C(=O)N[C@@H]2CNCC[C@H]2c2ccc(F)c(F)c2)ccc1-c1c(Cl)cnn1C.Cl, the “inhibition (INH)” value [5] was “Not Active”, the “fold change (FC)” value [2] was 12.2 and the IC50 [3] was 299 nM. For the same molecule, the “fold change (FC)” value [4] was 1.55 and the “inhibition (INH)” value [6] was “Not Active”.
For Cl.Cn1ncc(Cl)c1-c1ccc(C(=O)N[C@@H]2CNCC[C@H]2c2ccc(F)c(F)c2)cc1C1CC1, the “fold change (FC)” value [2] was 3.51, the IC50 [3] was 143 nM and the “fold change (FC)” value [4] was 2.62.
For Cn1ncc(Cl)c1-c1ccc(C(=O)N[C@@H]2CNCC[C@H]2c2ccc(F)c(F)c2)cc1, the “fold change (FC)” value [2] was 8.63, the IC50 [3] was 5 nM and the “fold change (FC)” value [4] was 2.41.
With Cl.Cn1nccc1-c1ccc(C(=O)N[C@@H]2CNCC[C@H]2c2ccc(F)c(F)c2)cc1C1CC1 the IC50 [1] was > 1000 nM, the “fold change (FC)” value [2] was 1.38 and the IC50 [3] was 157 nM. The “fold change (FC)” value [4] was 3.31.
With Cn1nccc1-c1ccc2c(c1)CN([C@@H]1CNCC[C@H]1c1ccc(F)c(F)c1)C2=O the “fold change (FC)” value [2] was 3.59, the IC50 [3] was 4.3 nM and the “fold change (FC)” value [4] was 2.24.
For Cl.O=C(N[C@@H]1CNCC[C@H]1c1ccc(F)c(F)c1)c1c(F)cc(-c2ccn[nH]2)cc1Cl, the “fold change (FC)” value [2] was 1.94, the IC50 [3] was 69.2 nM and the “fold change (FC)” value [4] was 1.39.
With CC(C)c1cc(C(=O)N[C@@H]2CNCC[C@H]2c2ccc(F)c(F)c2)ccc1-c1ccnn1C.Cl the IC50 [1] was > 1000 nM, the “fold change (FC)” value [2] was 2.06 and the IC50 [3] was 555 nM. For the same molecule, the “fold change (FC)” value [4] was 2.06.
With Cc1cc(C(=O)N[C@@H]2CNCC[C@H]2c2ccc(F)c(F)c2)ccc1-c1ccnn1C.Cl the “fold change (FC)” value [7] was 0.82, the “fold change (FC)” value [8] was 313.7 and the “fold change (FC)” value [2] was 14.49. The IC50 [3] was 102 nM and the “fold change (FC)” value [4] was 8.13.
For CC(C)c1cc(C(=O)N[C@@H]2CNCC[C@H]2c2ccc(F)c(F)c2)ccc1-c1c(Cl)cnn1C.Cl, the “fold change (FC)” value [2] was 5.03, the IC50 [3] was 69.3 nM and the “fold change (FC)” value [4] was 2.77.
For CC(C)c1cc(C(=O)N[C@@H]2CNCC[C@H]2c2ccc(F)c(F)c2)ccc1-c1c(Br)cnn1C.Cl, the IC50 [1] was > 1000 nM, the “fold change (FC)” value [2] was 4.49 and the IC50 [3] was > 1000 nM. The “fold change (FC)” value [4] was 2.6.
In the case of CCCc1cc(C(=O)N[C@@H]2CNCC[C@H]2c2ccc(F)c(F)c2)ccc1-c1c(Cl)cnn1C.Cl, the “fold change (FC)” value [2] is reported as 3.47, the IC50 [3] is reported as 245 nM and the “fold change (FC)” value [4] is reported as 1.92.
For Cl.O=C(N[C@@H]1CNCC[C@H]1c1ccc(F)c(F)c1)c1c(F)cc(-c2ccn[nH]2)cc1F, the IC50 [1] was > 1000 nM, the “fold change (FC)” value [2] was 8.14 and the IC50 [3] was 28 nM. For the same molecule, the “fold change (FC)” value [4] was 1.72.
In the case of Cl.O=C(N[C@@H]1CNCC[C@H]1c1ccc(F)c(F)c1)c1c(F)cc(-c2[nH]ncc2Br)cc1F, the “fold change (FC)” value [2] is reported as 19.79, the IC50 [3] is reported as > 1000 nM and the “fold change (FC)” value [4] is reported as 2.38.
